Experimental data published in paper PMC5088614 (PeerJ, 2016).
≈ marks a conversion by molar mass, not a printed value. Where “and” joins values, the source holds several entries; their conditions need not be identical. Equal values may be shown once. Entries after “also recorded” stand apart in the source; their conditions may differ. Read-outs that look alike come from different tables or passages of the source. Positions of bridges follow the written chain, without caps; N, C: chain ends. Residues, ends and D or L forms follow the SMILES beside them.

Columns and labels:
[1] = tested on: A549, HEPG2 and AGS cells
[2] = tested on: B. pseudomallei strain K96243; type: cell-based, Burkholderia pseudomallei
E.coli ATCC 25922 = type: cell-based, Escherichia coli
[3] = tested on: B. pseudomallei K96243 biofilm; type: cell-based, Burkholderia pseudomallei; parameters: Mean Diff., Untreated vs treated, Dunnett's Multiple Comparison Test (data for figure 2): unit not given here
B. pseudomallei biofilm = settings: cited from earlier work
[4] = tested on: B. pseudomallei strains used in the preliminary study; type: cell-based, Burkholderia pseudomallei
[5] = tested on: Escherichia coli (ATCC 29522)
[6] = tested on: human lung epithelial (A549) cells; settings: cited from earlier work
[7] = tested on: human gastric adenocarcinoma (AGS) cells; settings: cited from earlier work
[8] = tested on: human hepatocellular carcinoma (HepG2) cells
[9] = tested on: B. pseudomallei strain K96243 and clinical strains UMC031, UMC080, UMC089; settings: for MIC, B. pseudomallei (average): 24 h
[10] = tested on: human lung epithelial (A549) cells
B. pseudomallei isolates = type: cell-based, Burkholderia pseudomallei
E. coli = type: cell-based, Escherichia coli
[11] = tested on: human hepatocellular carcinoma (HepG2) cells; settings: cited from earlier work
[12] = tested on: human gastric adenocarcinoma (AGS) cells
B. pseudomallei K96243 = type: cell-based, Burkholderia pseudomallei

CC(C)(O/N=C(\C(=O)N[C@@H]1C(=O)N2C(C(=O)[O-])=C(C[n+]3ccccc3)CS[C@H]12)c1csc(N)n1)C(=O)O [CAZ, ceftazidime]
Mean Diff., 0 vs comparator, Dunnett's Multiple Comparison Test (MTT) [1]: 13.7
time after exposure to growth inhibition / bactericidal endpoint [2]: 8 h
Antibiotic susceptibility by disk diffusion (E.coli ATCC 25922): S
Mean Diff., Untreated vs treated, Dunnett's Multiple Comparison Test (data for figure 2) [3]: 7.842
reduction of surviving bacteria in biofilm state compared to the untreated (significance) [3]: significant reduction
inhibition of bacteria in biofilm state compared to untreated ([3]; 24 h): complete inhibition
concentration with anti-B. pseudomallei biofilm / biofilm inhibition activity (B. pseudomallei biofilm): 936 µM
Antibiotic susceptibility by disk diffusion [4]: R and S

O=C(O)c1cn(C2CC2)c2cc(N3CCNCC3)c(F)cc2c1=O [CIP]
Antibiotic susceptibility by disk diffusion (E.coli ATCC 25922): S

O=C(N[C@H](CO)[C@H](O)c1ccc([N+](=O)[O-])cc1)C(Cl)Cl [C]
Antibiotic susceptibility by disk diffusion (E.coli ATCC 25922): S
Antibiotic susceptibility by disk diffusion [4]: S and R

C[C@H]1c2cccc(O)c2C(O)=C2C(=O)[C@]3(O)C(O)=C(C(N)=O)C(=O)[C@@H](N(C)C)[C@@H]3[C@@H](O)[C@@H]21 [DXT]
Antibiotic susceptibility by disk diffusion (E.coli ATCC 25922): S
Antibiotic susceptibility by disk diffusion [4]: S

C[C@@H](O)[C@H]1C(=O)N2C(C(=O)O)=C(SCCN=CN)C[C@H]12 [IMI]
Antibiotic susceptibility by disk diffusion (E.coli ATCC 25922): S
Antibiotic susceptibility by disk diffusion [4]: S

CC[C@H](C)[C@H](NC(=O)[C@H](CCCCN)NC(=O)[C@H](CCC(=O)O)NC(=O)[C@H](CCCCN)NC(=O)[C@H](CO)NC(=O)[C@H](CCCCN)NC(=O)[C@H](CCCNC(=N)N)NC(=O)[C@H](Cc1ccccc1)NC(=O)[C@H](Cc1ccccc1)NC(=O)[C@H](CC(=O)O)NC(=O)CNC(=O)[C@H](CC(C)C)NC(=O)[C@@H](N)CC(C)C)C(=O)NCC(=O)N[C@@H](CCCCN)C(=O)N[C@@H](CCC(=O)O)C(=O)N[C@@H](Cc1ccccc1)C(=O)N[C@@H](CCCCN)C(=O)N[C@@H](CCCNC(=N)N)C(=O)N[C@H](C(=O)N[C@H](C(=O)N[C@@H](CCC(N)=O)C(=O)N[C@@H](CCCNC(=N)N)C(=O)N[C@H](C(=O)N[C@@H](CCCCN)C(=O)N[C@@H](CC(=O)O)C(=O)N[C@@H](Cc1ccccc1)C(=O)N[C@@H](CC(C)C)C(=O)N[C@@H](CCCNC(=N)N)C(=O)N[C@@H](CC(N)=O)C(=O)N[C@@H](CC(C)C)C(=O)N[C@H](C(=O)N1CCC[C@H]1C(=O)N[C@@H](CCCNC(=N)N)C(=O)N[C@H](C(=O)N[C@@H](CCC(=O)O)C(=O)N[C@@H](CO)C(=O)O)[C@@H](C)O)C(C)C)[C@@H](C)CC)C(C)C)[C@@H](C)CC [LL-37]
MBC, E.coli (ATCC 29522) ([5]; ATCC 29522, 24 h): 14.8 ± 6.42 µM (≈ 66.5 µg/mL)
MIC, E.coli (ATCC 29522) ([5]; ATCC 29522, 24 h): 14.8 ± 6.42 µM (≈ 66.5 µg/mL)
cytotoxicity to A549 [6]: cytotoxic
cytotoxicity to AGS [7]: cytotoxic

C[C@@H](O)[C@H]1C(=O)N2C(C(=O)O)=C(S[C@@H]3CN[C@H](C(=O)N(C)C)C3)[C@H](C)[C@H]12 [MRP, meropenem]
Mean Diff., 0 vs comparator, Dunnett's Multiple Comparison Test (MTT) [1]: 11.53
Antibiotic susceptibility by disk diffusion (E.coli ATCC 25922): S
Mean Diff., Untreated vs treated, Dunnett's Multiple Comparison Test (data for figure 2) [3]: 7.842
reduction of surviving bacteria in biofilm state compared to the untreated (significance) [3]: significant reduction
inhibition of bacteria in biofilm state compared to untreated ([3]; 24 h): complete inhibition
Antibiotic susceptibility by disk diffusion [4]: S

CC(C)C[C@H](NC(=O)[C@H](CCCNC(=N)N)NC(=O)CNC(=O)CNC(=O)[C@@H](N)CCCNC(=N)N)C(=O)N[C@H]1CSSC[C@@H](C(=O)N[C@H](C(=O)NCC(=O)N[C@@H](CCCNC(=N)N)C(N)=O)C(C)C)NC(=O)[C@H](C(C)C)NC(=O)[C@@H]2CSSC[C@H](NC(=O)[C@H](Cc3ccc(O)cc3)NC1=O)C(=O)N[C@@H](CCCNC(=N)N)C(=O)N[C@@H](CCCNC(=N)N)C(=O)N[C@@H](CCCNC(=N)N)C(=O)N[C@@H](Cc1ccccc1)C(=O)N2 [PG1, Protegrin 1]
percentage of viable cells, HEPG2 ([8]; 2 h, 115 μM): 5.0%
Mean Diff., 0 vs comparator, Dunnett's Multiple Comparison Test (MTT) [1]: 96.14
MIC, B. pseudomallei (average) [9]: 15.46 ± 5.02 µM (≈ 33.3 µg/mL)
percentage of viable cells, A549 ([10]; 2 h, 115 μM): 3.3%
Mean Diff., Untreated vs treated, Dunnett's Multiple Comparison Test (data for figure 2) [3]: 6.743
reduction of surviving bacteria in biofilm state compared to the untreated (significance) [3]: significant reduction
surviving bacteria in biofilm state 24 h post exposure [3]: 1.1 log CFU/biofilm
MIC, E.coli (ATCC 29522) ([5]; 37 °C 24 h): 5.8 ± 1.09E-15 μM
B. pseudomallei isolates susceptible to the AMP (B. pseudomallei isolates): 100%
Susceptibility of strain to AMP (S/R), preliminary study (E. coli): S
cytotoxicity against Hep G2 [11]: cytotoxic
percentage of viable cells, AGS ([12]; 2 h, 115 μM): 3.0%

CN(C)c1cc(NC(=O)CNC(C)(C)C)c(O)c2c1C[C@H]1C[C@H]3[C@H](N(C)C)C(O)=C(C(N)=O)C(=O)[C@@]3(O)C(O)=C1C2=O [TGC]
Antibiotic susceptibility by disk diffusion [4]: R and S

CC[C@H](C)[C@@H]1NC(=O)CNC(=O)[C@H](CCCNC(=N)N)NC(=O)[C@H](Cc2ccc(O)cc2)NC(=O)[C@@H]2CSSC[C@H](NC1=O)C(=O)N[C@@H](Cc1ccc(O)cc1)C(=O)N[C@@H](CCCNC(=N)N)C(=O)N[C@@H](CCCNC(=N)N)C(=O)N[C@H](C(=O)N[C@@H](CCCNC(=N)N)C(N)=O)CSSC[C@H](NC(=O)[C@H](Cc1c[nH]c3ccccc13)NC(=O)[C@@H](N)CCCCN)C(=O)N[C@@H](Cc1ccccc1)C(=O)N[C@@H](CCCNC(=N)N)C(=O)N[C@@H](C(C)C)C(=O)N2 [TP1, Tachyplesin 1] (H-KWCFRVCYRGICYRRCR-NH2; disulfide 3-16, 7-12)
MTT, mean over the lower concentrations [8]: 91.041
concentration inhibiting B. pseudomallei K96243 growth [2]: > 55 µM
time after exposure to growth inhibition [2]: following eight hours of exposure
viable bacteria at 24 h [2]: 9.96 log CFU/ml
MBC, B. pseudomallei (average) ([9]; 37 °C 24 h): 193.35 ± 2.00E-14 μM
MIC, B. pseudomallei (average) [9]: 61.69 ± 6.38 µM (≈ 140 µg/mL)
MTT, mean over the lower concentrations [10]: 86.0736
MBEC [3]: not achieved
Mean Diff., 0 vs concentration (Bonferroni's test) [3]: 4.116 and 4.208
Mean Diff., Untreated vs treated, Dunnett's Multiple Comparison Test (data for figure 2) [3]: 3.641
concentration of maximum inhibition of cells in biofilm state [3]: 442 µM
concentration reducing the number of B. pseudomallei in biofilm state [3]: above 55 μM
inhibition activity of TP1 higher than LL-37 [3]: approximately 2.0 log
inhibition activity of TP1 lower than PG1 [3]: 3.5 log
log reduction of bacteria in biofilm state [3]: 1.0 log and 1.3 log
reduction of surviving bacteria in biofilm state compared to the untreated (significance) [3]: significant reduction
surviving bacteria in biofilm state [3]: ~4.00 log CFU/biofilm
surviving bacteria in biofilm state 24 h post exposure [3]: 4.2 log CFU/biofilm
surviving bacteria in biofilm state at the end of the TP1 concentration series ([3]; 24 h): 3.6 log CFU/biofilm
MBC, E.coli (ATCC 29522) ([5]; ATCC 29522, 24 h): 22.1 ± 0 µM (≈ 50 µg/mL)
MIC, E.coli (ATCC 29522) ([5]; ATCC 29522, 24 h): 22.1 ± 0 µM (≈ 50 µg/mL)
B. pseudomallei isolates susceptible to the AMP (B. pseudomallei isolates): 83%
Susceptibility of strain to AMP (S/R), preliminary study (B. pseudomallei isolates): S and R
Susceptibility of strain to AMP (S/R), preliminary study (E. coli): S
cell morphology by SEM (B. pseudomallei K96243): membrane blebbing; also recorded: corrugated with dimples on the surface
MTT, mean over the lower concentrations [12]: 87.0414
percentage of viable cells, AGS ([12]; 2 h, 2.7 μM): 85.1%
percentage of viable cells, AGS ([12]; 2 h, 48.6 μM): 80%
percentage of viable cells, AGS ([12]; 24 h, 22.3 μM): 90.0 ± 8.4%

GFKLKGMARISCLPNGQWSNFPPKCIRECA [Sushi 1]
Mean Diff., Untreated vs treated, Dunnett's Multiple Comparison Test (data for figure 2) [3]: 0.04572
Susceptibility of strain to AMP (S/R), preliminary study (B. pseudomallei isolates): R
Susceptibility of strain to AMP (S/R), preliminary study (E. coli): S

GIGKFLHSAKKFGKAFVGEIMNS [Magainin 2]
Mean Diff., Untreated vs treated, Dunnett's Multiple Comparison Test (data for figure 2) [3]: 0.2494
Susceptibility of strain to AMP (S/R), preliminary study (B. pseudomallei isolates): R
Susceptibility of strain to AMP (S/R), preliminary study (E. coli): S

HAEHKVKIGVEQKYGQFPQGTEVTYTCSGNYFLM [Sushi 3]
Mean Diff., Untreated vs treated, Dunnett's Multiple Comparison Test (data for figure 2) [3]: 0.04165
Susceptibility of strain to AMP (S/R), preliminary study (B. pseudomallei isolates): R
Susceptibility of strain to AMP (S/R), preliminary study (E. coli): S

Ornithine
Susceptibility of strain to AMP (S/R), preliminary study (B. pseudomallei isolates): R
Susceptibility of strain to AMP (S/R), preliminary study (E. coli): S
